Read-outs that look alike come from different tables or passages of the source.
How the values were obtained:
Format in all cases: cell-based
K. oxytoca G1640 = assay: Carbapenem MIC of study isolate; details: Klebsiella oxytoca, KPC
K. pneumoniae G1685 = assay: Carbapenem MIC of study isolate; details: Klebsiella pneumoniae, CMY-2-like
K. pneumoniae 0042 = assay: Carbapenem MIC of study isolate; details: Klebsiella pneumoniae, CTX-M-28, OmpK35, OmpK36
K. pneumoniae G1758 = assay: Carbapenem MIC of study isolate; details: Klebsiella pneumoniae, CLSI MHT negative control
E. cloacae G1735 = assay: Carbapenem MIC of study isolate; details: Enterobacter cloacae
K. pneumoniae G1511 = assay: Carbapenem MIC of study isolate; details: Klebsiella pneumoniae, KPC-4, read-out: MIC
S. marcescens G153 = assay: Carbapenem MIC of study isolate; details: Serratia marcescens, KPC
K. pneumoniae 0109 = assay: Carbapenem MIC of study isolate; details: Klebsiella pneumoniae, CTX-M-15, TEM-1, SHV-1
E. coli 0119 = assay: Carbapenem MIC of study isolate; details: Escherichia coli, NDM
P. mirabilis 0156 = assay: Carbapenem MIC of study isolate; details: Proteus mirabilis, KPC
P. aeruginosa G15019 = assay: Carbapenem MIC of study isolate
E. cloacae G1637 = assay: Carbapenem MIC of study isolate; details: Enterobacter cloacae, High AmpC
E. coli G164 = assay: Carbapenem MIC of study isolate; details: Escherichia coli, High AmpC (Table 2), SHV-12-like (Table 4.2)
P. mirabilis G15185 = assay: Carbapenem MIC of study isolate; details: Proteus mirabilis, IMP-27, read-out: MIC
M. morganii G1751 = assay: Carbapenem MIC of study isolate; details: Morganella morganii, High AmpC
K. pneumoniae G157 = assay: Carbapenem MIC of study isolate; details: Klebsiella pneumoniae, KPC-8
K. pneumoniae 0113 = assay: Carbapenem MIC of study isolate; details: Klebsiella pneumoniae, KPC-3
A. baumannii G1734 = assay: Carbapenem MIC of study isolate; details: Acinetobacter baumannii, OXA-40
K. pneumoniae 0043 = assay: Carbapenem MIC of study isolate; details: Klebsiella pneumoniae, SHV-12, OmpK36
P. mirabilis G1745 = assay: Carbapenem MIC of study isolate; details: Proteus mirabilis, CMY, TEM-1-like
E. aerogenes G1614 = assay: Carbapenem MIC of study isolate; details: Klebsiella aerogenes, High AmpC
K. pneumoniae G1725 = assay: Carbapenem MIC of study isolate; details: Klebsiella pneumoniae, KPC
E. cloacae G1691 = assay: Carbapenem MIC of study isolate; details: Enterobacter cloacae; IMP-8-producing E. cloacae G1691
E. coli 0137 = assay: Carbapenem MIC of study isolate; details: Escherichia coli, NDM-6
E. coli 0086 = assay: Carbapenem MIC of study isolate; details: Escherichia coli, CTX-M-9
E. coli 0058 = assay: Carbapenem MIC of study isolate; details: Escherichia coli, ESBL
K. pneumoniae G158 = assay: Carbapenem MIC of study isolate; details: Klebsiella pneumoniae, KPC-8
A. baumannii 0052 = assay: Carbapenem MIC of study isolate; details: Acinetobacter baumannii, OXA-58
E. cloacae G1693 = assay: Carbapenem MIC of study isolate; details: Enterobacter cloacae, IMP-8 (Table 4.1)
K. pneumoniae G1675 = assay: Carbapenem MIC of study isolate; details: Klebsiella pneumoniae, KPC-2, SHV-5-like
K. ozaenae 0096 = assay: Carbapenem MIC of study isolate; details: KPC
E. coli G1693 = assay: Carbapenem MIC of study isolate; details: Escherichia coli, High AmpC, S12like (Table 2), High AmpC (Table 4.2)
E. cloacae 0032 = assay: Carbapenem MIC of study isolate; details: Enterobacter cloacae, KPC-3, TEM-1
P. aeruginosa G15 = assay: Carbapenem MIC of study isolate; details: Pseudomonas aeruginosa, KPC-5
K. oxytoca 0147 = assay: Carbapenem MIC of study isolate; details: KPC
P. aeruginosa G15557 = assay: Carbapenem MIC of study isolate; details: VIM-like
E. aerogenes G1648 = assay: Carbapenem MIC of study isolate; details: Klebsiella aerogenes, High AmpC
K. pneumoniae 0044 = assay: Carbapenem MIC of study isolate; details: Klebsiella pneumoniae, CTX-M-15, TEM-1, SHV-1
P. mirabilis 0155 = assay: Carbapenem MIC of study isolate; details: Proteus mirabilis, KPC
K. pneumoniae 0047 = assay: Carbapenem MIC of study isolate; details: Klebsiella pneumoniae, OmpK35
C. freundii G1706 = assay: Carbapenem MIC of study isolate; details: Citrobacter freundii, KPC
K. pneumoniae 0079 = assay: Carbapenem MIC of study isolate; details: Klebsiella pneumoniae, CTX-M-14, OmpK35 (Table 4.2 also DHA-1)
[1] = tested on: Bacteria expressing Class C β-lactamases; assay: Growth test with CLOX (FIG. 31)
Procedure: (§1) Non-limiting embodiments of detection tests for enteric and non-fermenting bacteria, with various concentration ranges of one or more antibiotics, and various concentration ranges for one or more inhibitors are shown in FIG. 1-FIG. 24 and FIG. 31. These figures illustrate the concentration of the antibiotic being tested (in μg/ml) along the x-axis (not every concentration is tested in every figure), and the amount of growth of bacteria in the sample in the y-axis. The boxes illustrate the median, interquartile range, non-outlier minimum and maximum; with asterisks representing single outliers. Each figure has a panel for Class A, Class B, and Class D producing bacteria, as well as a panel for non-carbapenemase producing bacteria (NEG). In some embodiments, the detection tests described herein are not performed by imaging a change in cell morphology.
(§2) In some embodiments, the detection tests can comprise a plurality of wells comprising enteric bacteria, CLOX at 0.1 mg/ml, and MEM over a range of concentrations of about 0.0156 μg/ml to about 64 μg/ml (FIG. 31).

[2] = tested on: bacteria expressing Classes A, B or D; assay: Growth test with CLOX (FIG. 31); details: CLOX at a concentration of about 100 μg/ml
Procedure: as §1, §2

[3] = tested on: Bacteria expressing Ambler Class B carbapenemases; assay: Growth tests with chelating agents added to antibiotic
Procedure: as §1

## C[C@@H](O)[C@H]1C(=O)N2C(C(=O)O)=C(SCCN=CN)C[C@H]12 [Imipenem]
K. oxytoca G1640
  MIC: > 8 µg/mL
K. pneumoniae G1685
  MIC: > 8 µg/mL
K. pneumoniae 0042
  MIC: 1 µg/mL
K. pneumoniae G1758
  MIC: 4 µg/mL
E. cloacae G1735
  MIC: > 8 µg/mL
K. pneumoniae G1511
  MIC: 4 µg/mL
S. marcescens G153
  MIC: > 8 µg/mL
K. pneumoniae 0109
  MIC: 4 µg/mL
E. coli 0119
  MIC: > 8 µg/mL
P. mirabilis 0156
  MIC: 8 µg/mL
P. aeruginosa G15019; Pseudomonas aeruginosa, VIM-2, read-out: MIC
  MIC: > 8 µg/mL
P. aeruginosa G15019; VIM-2, listed as IPM
  MIC: >8 µg/mL
E. cloacae G1637
  MIC: > 8 µg/mL
E. coli G164
  MIC: > 8 µg/mL
P. mirabilis G15185
  MIC: 8 µg/mL
M. morganii G1751
  MIC: 4 µg/mL
K. pneumoniae G157
  MIC: > 8 µg/mL
K. pneumoniae 0113
  MIC: > 8 µg/mL
A. baumannii G1734
  MIC: > 8 µg/mL
K. pneumoniae 0043
  MIC: > 8 µg/mL
P. mirabilis G1745
  MIC: 8 µg/mL
E. aerogenes G1614
  MIC: > 8 µg/mL
K. pneumoniae G1725
  MIC: > 8 µg/mL
E. cloacae G1691
  MIC: 4 µg/mL
E. coli 0137
  MIC: > 8 µg/mL
E. coli 0086
  MIC: > 8 µg/mL
E. coli 0058
  MIC: ≤ 0.25 µg/mL
K. pneumoniae G158
  MIC: > 8 µg/mL
A. baumannii 0052
  MIC: > 8 µg/mL
E. cloacae G1693
  MIC: 4 µg/mL
K. pneumoniae G1675
  MIC: > 8 µg/mL
K. ozaenae 0096
  MIC: > 8 µg/mL
E. coli G1693
  MIC: > 8 µg/mL
E. cloacae 0032
  MIC: 4 µg/mL
P. aeruginosa G15
  MIC: > 8 µg/mL
K. oxytoca 0147; listed as IPM
  MIC: >8 µg/mL
K. oxytoca 0147; Klebsiella oxytoca, read-out: MIC
  MIC: > 8 µg/mL
P. aeruginosa G15557; Pseudomonas aeruginosa, read-out: MIC
  MIC: > 8 µg/mL
P. aeruginosa G15557; listed as IPM
  MIC: >8 µg/mL
E. aerogenes G1648
  MIC: > 8 µg/mL
K. pneumoniae 0044
  MIC: > 8 µg/mL
P. mirabilis 0155
  MIC: > 8 µg/mL
K. pneumoniae 0047
  MIC: > 8 µg/mL
C. freundii G1706
  MIC: 2 µg/mL
K. pneumoniae 0079
  MIC: > 8 µg/mL

## Cc1onc(-c2ccccc2Cl)c1C(=O)N[C@@H]1C(=O)N2[C@@H]1SC(C)(C)[C@@H]2C(=O)O [CLOX, cloxacillin]
[1]
  concentration at which bacteria are sensitive: about 100 μg/ml
[2]
  sensitivity to CLOX: typically not

## O=C(O)CN(CCN(CC(=O)O)CC(=O)O)CC(=O)O [EDTA, ethylenediaminetetraacetic acid]
[3]; FIG. 3, FIG. 4, FIG. 15 and FIG. 16 (with TEM/CLOX or DOR/CLOX)
  concentration at which bacteria are sensitive: 250 µg/mL
[3]; FIG. 5 and FIG. 6 (with TEM/CLOX)
  concentration at which bacteria are sensitive: 280 µg/mL

From patent publication US12234499B2, “Compositions, methods, systems and/or kits for detecting antimicrobial resistance in bacteria” (priority 2016, dated 2025)
